Read-outs that look alike come from different tables or passages of the source.
Experiments:
Assay in all cases: Kinase selectivity, P33-radiolabeled assay
Type in all cases: biochemical
ALK5/TGFBR1 = target: T1, ALK5/TGFBR1 (Homo sapiens, UniProt P36897); conditions: 10 μM ATP
T1 construct: purchased Reaction Biology Corp
T1 sequence (P36897 34-503): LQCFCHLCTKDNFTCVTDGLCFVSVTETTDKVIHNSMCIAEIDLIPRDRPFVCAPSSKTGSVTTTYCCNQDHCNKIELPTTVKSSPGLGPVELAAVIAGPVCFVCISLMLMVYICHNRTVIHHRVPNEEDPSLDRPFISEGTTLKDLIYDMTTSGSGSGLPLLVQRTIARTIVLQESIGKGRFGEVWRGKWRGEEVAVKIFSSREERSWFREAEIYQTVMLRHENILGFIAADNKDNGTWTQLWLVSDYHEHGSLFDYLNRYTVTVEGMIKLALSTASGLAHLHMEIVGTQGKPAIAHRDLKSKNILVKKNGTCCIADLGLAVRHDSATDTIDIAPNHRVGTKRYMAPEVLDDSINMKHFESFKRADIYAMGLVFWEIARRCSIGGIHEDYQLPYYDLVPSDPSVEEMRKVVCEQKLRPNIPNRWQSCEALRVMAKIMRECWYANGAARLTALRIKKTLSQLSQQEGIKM
In short: (§1)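 Each enzyme was exposed to 10 μM compound, with duplicate measurements, in reactions containing 10 μM ATP. Numbers are remaining activity as a percent of the vehicle (DMSO) signal.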

JNK3 = target: T2, JNK3 (Homo sapiens, UniProt P53779); conditions: 10 μM ATP
T2 construct: purchased Reaction Biology Corp
T2 sequence (P53779 whole entry): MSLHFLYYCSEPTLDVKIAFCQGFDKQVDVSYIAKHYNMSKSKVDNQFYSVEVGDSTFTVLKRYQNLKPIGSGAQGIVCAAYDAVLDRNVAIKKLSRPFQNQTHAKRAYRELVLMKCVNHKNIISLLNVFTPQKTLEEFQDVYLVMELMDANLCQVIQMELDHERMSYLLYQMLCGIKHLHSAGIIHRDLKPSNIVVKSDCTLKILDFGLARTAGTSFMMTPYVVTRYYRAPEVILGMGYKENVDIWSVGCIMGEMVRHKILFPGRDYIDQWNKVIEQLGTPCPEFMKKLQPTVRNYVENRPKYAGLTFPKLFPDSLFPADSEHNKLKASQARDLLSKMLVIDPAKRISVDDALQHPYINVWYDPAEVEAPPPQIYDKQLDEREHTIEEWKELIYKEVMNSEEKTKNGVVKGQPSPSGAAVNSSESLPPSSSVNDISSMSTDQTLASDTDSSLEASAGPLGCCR
In short: as §1

CLK4 = target: T3, CLK4 (Homo sapiens, UniProt Q9HAZ1); conditions: 10 μM ATP
T3 construct: purchased Reaction Biology Corp
T3 sequence (Q9HAZ1 whole entry): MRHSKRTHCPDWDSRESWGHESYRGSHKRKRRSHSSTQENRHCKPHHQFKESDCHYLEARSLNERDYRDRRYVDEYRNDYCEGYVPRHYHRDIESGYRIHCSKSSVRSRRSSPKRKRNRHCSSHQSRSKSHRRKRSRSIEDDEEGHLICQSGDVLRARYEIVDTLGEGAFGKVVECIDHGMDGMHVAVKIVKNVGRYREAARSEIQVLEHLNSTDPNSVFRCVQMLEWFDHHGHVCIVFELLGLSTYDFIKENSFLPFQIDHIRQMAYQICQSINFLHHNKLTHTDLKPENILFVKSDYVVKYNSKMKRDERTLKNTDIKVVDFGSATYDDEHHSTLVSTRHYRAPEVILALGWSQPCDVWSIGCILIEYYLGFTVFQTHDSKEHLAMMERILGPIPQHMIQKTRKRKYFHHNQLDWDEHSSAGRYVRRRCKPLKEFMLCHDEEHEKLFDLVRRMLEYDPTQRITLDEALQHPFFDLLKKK
In short: as §1

MEKK1 = target: T4, MEKK1 (Homo sapiens, UniProt Q13233); conditions: 10 μM ATP
T4 construct: purchased Reaction Biology Corp
T4 sequence (Q13233 whole entry): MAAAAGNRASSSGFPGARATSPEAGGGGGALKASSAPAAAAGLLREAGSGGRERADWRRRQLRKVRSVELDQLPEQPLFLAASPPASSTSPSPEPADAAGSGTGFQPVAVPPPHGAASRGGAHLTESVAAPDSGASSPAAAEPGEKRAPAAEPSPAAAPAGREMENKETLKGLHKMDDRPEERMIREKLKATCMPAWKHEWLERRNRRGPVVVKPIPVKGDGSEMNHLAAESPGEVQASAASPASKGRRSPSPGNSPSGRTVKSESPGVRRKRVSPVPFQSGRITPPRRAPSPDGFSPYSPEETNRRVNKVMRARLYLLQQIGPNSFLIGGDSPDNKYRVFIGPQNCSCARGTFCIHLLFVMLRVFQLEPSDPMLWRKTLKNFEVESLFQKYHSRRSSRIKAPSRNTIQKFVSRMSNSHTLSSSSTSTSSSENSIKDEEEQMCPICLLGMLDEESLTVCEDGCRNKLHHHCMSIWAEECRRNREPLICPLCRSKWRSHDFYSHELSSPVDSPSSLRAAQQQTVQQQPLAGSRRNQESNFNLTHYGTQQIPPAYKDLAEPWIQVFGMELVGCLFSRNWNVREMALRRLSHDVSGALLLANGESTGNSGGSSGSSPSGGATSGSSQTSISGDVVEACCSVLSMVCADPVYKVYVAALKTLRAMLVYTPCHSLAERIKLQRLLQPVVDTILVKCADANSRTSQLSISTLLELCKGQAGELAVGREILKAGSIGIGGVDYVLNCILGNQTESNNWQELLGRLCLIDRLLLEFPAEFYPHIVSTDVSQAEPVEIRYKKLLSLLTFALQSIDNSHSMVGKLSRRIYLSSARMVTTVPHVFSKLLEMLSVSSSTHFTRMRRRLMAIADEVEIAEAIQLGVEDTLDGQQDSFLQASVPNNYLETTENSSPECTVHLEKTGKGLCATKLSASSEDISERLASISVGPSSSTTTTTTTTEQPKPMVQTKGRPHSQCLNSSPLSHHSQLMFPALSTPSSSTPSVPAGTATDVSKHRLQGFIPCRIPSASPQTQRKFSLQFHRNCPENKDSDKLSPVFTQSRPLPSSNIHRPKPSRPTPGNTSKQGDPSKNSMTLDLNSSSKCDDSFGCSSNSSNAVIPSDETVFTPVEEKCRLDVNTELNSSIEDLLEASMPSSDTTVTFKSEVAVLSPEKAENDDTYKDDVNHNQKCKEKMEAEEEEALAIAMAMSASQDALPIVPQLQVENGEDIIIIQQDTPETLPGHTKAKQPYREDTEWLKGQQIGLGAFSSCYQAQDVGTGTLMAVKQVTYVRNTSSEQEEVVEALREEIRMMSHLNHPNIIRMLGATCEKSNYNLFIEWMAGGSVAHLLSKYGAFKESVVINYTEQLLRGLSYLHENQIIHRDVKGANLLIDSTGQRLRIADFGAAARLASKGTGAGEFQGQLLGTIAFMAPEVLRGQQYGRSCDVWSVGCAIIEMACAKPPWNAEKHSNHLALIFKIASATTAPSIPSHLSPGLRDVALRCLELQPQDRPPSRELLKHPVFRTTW
In short: as §1

MAPKAPK2 = target: T5, MAPKAPK2 (Homo sapiens, UniProt P49137); conditions: 10 μM ATP
T5 construct: purchased Reaction Biology Corp
T5 sequence (P49137 whole entry): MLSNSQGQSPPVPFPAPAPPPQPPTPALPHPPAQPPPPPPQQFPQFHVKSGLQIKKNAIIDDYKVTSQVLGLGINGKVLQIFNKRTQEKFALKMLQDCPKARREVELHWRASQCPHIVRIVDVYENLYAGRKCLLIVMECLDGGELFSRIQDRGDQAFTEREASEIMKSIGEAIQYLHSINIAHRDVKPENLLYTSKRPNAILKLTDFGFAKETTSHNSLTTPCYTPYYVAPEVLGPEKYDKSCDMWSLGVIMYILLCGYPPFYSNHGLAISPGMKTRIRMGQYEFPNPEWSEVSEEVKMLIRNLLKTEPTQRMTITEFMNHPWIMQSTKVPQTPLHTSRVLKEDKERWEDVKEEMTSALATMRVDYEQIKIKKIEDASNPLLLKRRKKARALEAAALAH
In short: as §1

FLT3 = target: T6, FLT3 (Homo sapiens, UniProt P36888); conditions: 10 μM ATP
T6 construct: purchased Reaction Biology Corp
T6 sequence (P36888 27-993): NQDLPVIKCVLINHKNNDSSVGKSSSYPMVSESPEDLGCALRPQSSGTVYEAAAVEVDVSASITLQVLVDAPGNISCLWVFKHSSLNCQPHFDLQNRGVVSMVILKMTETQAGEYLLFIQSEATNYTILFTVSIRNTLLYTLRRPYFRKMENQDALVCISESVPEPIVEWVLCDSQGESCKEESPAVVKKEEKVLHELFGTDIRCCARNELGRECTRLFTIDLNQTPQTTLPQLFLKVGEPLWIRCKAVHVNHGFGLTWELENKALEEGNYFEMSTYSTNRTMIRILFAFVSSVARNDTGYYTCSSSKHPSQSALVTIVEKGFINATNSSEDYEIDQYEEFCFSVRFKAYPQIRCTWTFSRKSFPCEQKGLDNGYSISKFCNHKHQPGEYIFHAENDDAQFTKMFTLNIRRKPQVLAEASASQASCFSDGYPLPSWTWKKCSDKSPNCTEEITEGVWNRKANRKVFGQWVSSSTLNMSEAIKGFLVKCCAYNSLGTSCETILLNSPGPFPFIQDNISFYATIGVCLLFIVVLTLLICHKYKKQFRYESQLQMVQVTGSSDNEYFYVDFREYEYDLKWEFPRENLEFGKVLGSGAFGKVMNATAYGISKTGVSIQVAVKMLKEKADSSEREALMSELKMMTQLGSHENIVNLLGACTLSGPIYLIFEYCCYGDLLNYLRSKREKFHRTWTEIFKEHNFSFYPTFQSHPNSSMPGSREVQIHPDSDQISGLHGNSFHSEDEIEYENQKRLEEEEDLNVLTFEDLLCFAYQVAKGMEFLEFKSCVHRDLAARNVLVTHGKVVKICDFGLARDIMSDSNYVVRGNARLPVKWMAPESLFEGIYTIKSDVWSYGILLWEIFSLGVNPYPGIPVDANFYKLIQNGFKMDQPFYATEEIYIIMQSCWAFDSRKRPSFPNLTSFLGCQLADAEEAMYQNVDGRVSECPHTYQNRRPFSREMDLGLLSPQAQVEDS
In short: as §1

MEK2 = target: T7, MEK2 (Homo sapiens, UniProt P36507)
T7 construct: purchased Reaction Biology Corp
T7 sequence (P36507 whole entry): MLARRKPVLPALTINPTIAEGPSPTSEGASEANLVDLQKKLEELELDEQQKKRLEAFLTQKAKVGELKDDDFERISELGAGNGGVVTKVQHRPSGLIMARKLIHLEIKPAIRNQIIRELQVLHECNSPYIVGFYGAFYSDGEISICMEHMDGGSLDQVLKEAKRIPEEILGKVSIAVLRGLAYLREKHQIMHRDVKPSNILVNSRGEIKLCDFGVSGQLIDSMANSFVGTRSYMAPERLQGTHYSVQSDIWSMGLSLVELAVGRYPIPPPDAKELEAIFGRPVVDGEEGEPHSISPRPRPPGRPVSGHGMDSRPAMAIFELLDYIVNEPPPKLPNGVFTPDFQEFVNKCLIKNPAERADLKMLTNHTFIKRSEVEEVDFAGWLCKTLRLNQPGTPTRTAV
In short: as §1

GSK3b = target: T8, GSK3b (Homo sapiens, UniProt P49841); conditions: 10 μM ATP
T8 construct: purchased Reaction Biology Corp
T8 sequence (P49841 whole entry): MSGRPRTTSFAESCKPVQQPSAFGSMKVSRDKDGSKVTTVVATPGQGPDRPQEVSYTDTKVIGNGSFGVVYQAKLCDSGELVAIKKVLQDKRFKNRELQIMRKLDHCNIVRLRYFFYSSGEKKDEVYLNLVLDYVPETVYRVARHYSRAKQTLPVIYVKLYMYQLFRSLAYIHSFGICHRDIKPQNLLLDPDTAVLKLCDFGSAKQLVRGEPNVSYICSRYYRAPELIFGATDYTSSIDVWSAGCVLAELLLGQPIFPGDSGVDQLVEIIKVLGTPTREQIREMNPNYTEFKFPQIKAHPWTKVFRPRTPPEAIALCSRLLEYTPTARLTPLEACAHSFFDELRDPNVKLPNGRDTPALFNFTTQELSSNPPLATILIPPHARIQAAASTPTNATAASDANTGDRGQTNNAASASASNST
In short: as §1

MEKK3 = target: T9, MEKK3 (Homo sapiens, UniProt Q99759); conditions: 10 μM ATP
T9 construct: purchased Reaction Biology Corp
T9 sequence (Q99759 1-626): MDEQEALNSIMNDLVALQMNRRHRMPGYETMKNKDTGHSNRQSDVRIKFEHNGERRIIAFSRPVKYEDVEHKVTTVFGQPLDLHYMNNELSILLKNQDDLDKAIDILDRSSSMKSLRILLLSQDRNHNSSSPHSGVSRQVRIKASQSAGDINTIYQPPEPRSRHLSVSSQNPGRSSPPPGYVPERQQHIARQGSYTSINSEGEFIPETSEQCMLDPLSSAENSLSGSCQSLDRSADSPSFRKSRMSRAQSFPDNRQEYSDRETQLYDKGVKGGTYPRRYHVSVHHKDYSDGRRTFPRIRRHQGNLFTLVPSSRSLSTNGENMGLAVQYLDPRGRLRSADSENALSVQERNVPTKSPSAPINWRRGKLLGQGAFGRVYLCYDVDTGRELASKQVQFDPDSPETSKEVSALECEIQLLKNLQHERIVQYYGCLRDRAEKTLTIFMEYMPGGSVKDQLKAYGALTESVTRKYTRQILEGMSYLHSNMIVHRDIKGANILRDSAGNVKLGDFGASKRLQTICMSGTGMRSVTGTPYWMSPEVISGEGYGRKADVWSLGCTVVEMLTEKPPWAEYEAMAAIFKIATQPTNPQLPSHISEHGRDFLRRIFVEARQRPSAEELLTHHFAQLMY
In short: as §1

CAMK2b = target: T10, CAMK2b (Homo sapiens, UniProt Q13554); conditions: 10 μM ATP
T10 construct: purchased Reaction Biology Corp
T10 sequence (Q13554 whole entry): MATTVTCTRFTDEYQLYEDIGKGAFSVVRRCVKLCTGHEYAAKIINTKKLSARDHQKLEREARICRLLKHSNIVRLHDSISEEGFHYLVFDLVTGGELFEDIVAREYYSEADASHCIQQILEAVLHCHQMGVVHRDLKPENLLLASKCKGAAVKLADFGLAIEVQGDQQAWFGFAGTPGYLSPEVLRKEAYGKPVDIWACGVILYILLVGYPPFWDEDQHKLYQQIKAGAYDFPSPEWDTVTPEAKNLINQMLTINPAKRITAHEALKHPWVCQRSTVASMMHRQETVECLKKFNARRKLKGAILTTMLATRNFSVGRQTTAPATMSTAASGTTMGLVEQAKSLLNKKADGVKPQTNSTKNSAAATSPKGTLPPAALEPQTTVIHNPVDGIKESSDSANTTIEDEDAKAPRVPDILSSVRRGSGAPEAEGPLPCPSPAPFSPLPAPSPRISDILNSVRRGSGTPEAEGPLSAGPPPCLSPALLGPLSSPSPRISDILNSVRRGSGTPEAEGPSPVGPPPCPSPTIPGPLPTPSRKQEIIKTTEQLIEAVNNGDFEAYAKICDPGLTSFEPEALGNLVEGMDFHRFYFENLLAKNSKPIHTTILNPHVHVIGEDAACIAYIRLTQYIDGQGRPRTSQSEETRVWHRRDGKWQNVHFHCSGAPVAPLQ
In short: as §1

[1] = read-out: % Enzyme Activity (relative to DMSO controls) AVG
[2] = read-out: % Enzyme Activity (relative to DMSO controls) Data 1
[3] = read-out: % Enzyme Activity (relative to DMSO controls) Data 2

## CC(C)(C)C(=O)N1N=CC[C@H]1c1ccccc1 [GSK′963]
ALK5/TGFBR1; [1]
  remaining activity at 10 µM: 94.1%
ALK5/TGFBR1; [2]
  remaining activity at 10 µM: 97%
ALK5/TGFBR1; [3]
  remaining activity at 10 µM: 91.2%
JNK3; [1]
  remaining activity at 10 µM: 100%
JNK3; [2]
  remaining activity at 10 µM: 101%
JNK3; [3]
  remaining activity at 10 µM: 100%
CLK4; [1]
  remaining activity at 10 µM: 100%
CLK4; [2]
  remaining activity at 10 µM: 101%
CLK4; [3]
  remaining activity at 10 µM: 99.8%
MEKK1; [1]
  remaining activity at 10 µM: 97.3%
MEKK1; [2]
  remaining activity at 10 µM: 101%
MEKK1; [3]
  remaining activity at 10 µM: 94%
MAPKAPK2; [1]
  remaining activity at 10 µM: 112%
MAPKAPK2; [2]
  remaining activity at 10 µM: 115%
MAPKAPK2; [3]
  remaining activity at 10 µM: 109%
FLT3; [1]
  remaining activity at 10 µM: 101%
FLT3; [2]
  remaining activity at 10 µM: 98.7%
FLT3; [3]
  remaining activity at 10 µM: 103%
MEK2; 10 uM, 10 μM ATP, read-out: % Enzyme Activity (relative to DMSO controls) AVG
  remaining activity at 10 µM: 102%
MEK2; 10 uM, 10 μM ATP, read-out: % Enzyme Activity (relative to DMSO controls) Data 2
  remaining activity at 10 µM: 103%
MEK2; [2]
  remaining activity at 10 µM: 101%
GSK3b; [1]
  remaining activity at 10 µM: 98.7%
GSK3b; [2]
  remaining activity at 10 µM: 98.8%
GSK3b; [3]
  remaining activity at 10 µM: 98.6%
MEKK3; [1]
  remaining activity at 10 µM: 119%
MEKK3; [2]
  remaining activity at 10 µM: 122%
MEKK3; [3]
  remaining activity at 10 µM: 115%
CAMK2b; [1]
  remaining activity at 10 µM: 95.1%
CAMK2b; [2]
  remaining activity at 10 µM: 94.1%
CAMK2b; [3]
  remaining activity at 10 µM: 96.1%
